Earlier results on one molecule are cited in patent US7195778B2, “Drug delivery system for zero order, zero order-biphasic, ascending or descending drug delivery” (Teva Pharmaceutical Industries Ltd., priority 2001, dated 2007).

Counter-ions that a name gives are not always drawn. Like-named read-outs stand apart in the source and are kept apart here.

Turning to `COC(=O)C(c1ccccc1)C1CCCCN1` (stereo not shown) [methylphenidate HCl], for the setting “adults”, the drug excreted was 80%. For the same molecule, the drug excreted (children) is given as 67%. Further, where the note is “children, immediate release”, the time to peak is 1.9 h and the “time to peak, range” value was 0.3 to 4.4 h. For the same molecule, the primary adverse events entry (chronic dosing) is “nervousness, insomnia and appetite suppression”. Also, for the setting “immediate release”, the pharmacokinetic half-life was 2 to 3 h. For the same molecule, the “AD/HD patients responding positively” value (reports) is 70–90%.
